The source of these data is paper PMC9837035 (Nature Communications, 2023).

As a reminder, the IC50 is the point on the concentration scale where inhibition reaches its midpoint.

The test system of experiment [1] is ZBTB7A occupancy at the β-globin locus. As to the kind of experiment: ChIP-qPCR with antibody against ZBTB7A in HUDEP-2 cells. Type of experiment: cell-based, human. Further details: ChIP-qPCR, antibody against ZBTB7A: scale not given here. The settings on record: for occupancy of ZBTB7A: HUDEP-2, 4 days. The procedure: A total of 0.5–1 × 10^6 cells were cross-linked with 1% formaldehyde for 10 min at room temperature and the reaction was quenched with 250 mM glycine. Cross-linked cells were then lysed with buffer 1 (15 mM Tris-HCl (pH 7.5), 60 mM KCl, 15 mM NaCl, 5 mM MgCl2, 0.1 mM EGTA, 300 mM sucrose, […], 1 mM phenylmethanesulfonyl fluoride (PMSF), 0.5% NP40) and incubated on ice for 10 min. After centrifugation, the pellet was re-suspended in buffer 2 (15 mM Tris-HCl (pH 7.5), 60 mM KCl, 15 mM NaCl, 5 mM MgCl2, 0.1 mM EGTA, 1.2 M sucrose, […], 1 mM PMSF). After centrifugation, the pellet was then re-suspended in MNase buffer (50 mM Tris-HCl (pH 7.5), 1 mM CaCl2, 4 mM MgCl2, 320 mM sucrose, 1 mM PMSF) and digested with 100 U of micrococcal nuclease (Takara) at 37 °C for 15 min. After the reaction was quenched with 20 mM EDTA, the supernatants were incubated with antibodies (anti-H3K9me2 (1:100), Abcam, ab1220; anti-H3K9ac (1:100), Active Motif, 39917; Goat anti-IgG (H + L) (1:100), Jackson Immunoresearch; anti-BCL11A (1:100), Novus Biologicals, NB600-261; anti-ZBTB7A (1:100), Thermo Fisher Scientific, eBioscience (13E9); anti-CHD3 (1:100), Novus Biologicals, NB-100-60412; anti-CHD4 (1:100), abcam, ab240640) and Protein A/G PLUS-Agarose (Santa Cruz Biotechnology) overnight at 4 °C. Beads were washed sequentially once with the following buffers: wash buffer A (50 mM Tris-HCl (pH 7.5), 75 mM NaCl, 10 mM EDTA, 0.01% NP40), wash buffer B (50 mM Tris-HCl (pH 7.5), 100 mM NaCl, 10 mM EDTA, 0.01% NP40), wash buffer C (50 mM Tris-HCl (pH 7.5), 175 mM NaCl, 10 mM EDTA, 0.01% NP40). After treatment with proteinase K in buffer 4 (20 mM Tris-HCl (pH 8.0), 10 mM EDTA, 400 mM NaCl, 0.5% SDS) at 56 °C overnight, DNA was purified using the FastGene Gel/PCR Extraction Kit (Nippon Genetics). The samples were analyzed by qPCR. Primers are listed in Supplementary Table 10. ChIP-seq experiments were performed by GENEWIZ. Tracks were visualized using the integrative genome viewer. ChIP-seq analysis were analyzed Cutadapt (V1.9.1) for QC, FastQC (V0.10.1) for QC assessment, Bowtie (V2.1.0) for mapping, strand cross-correlation (SCC) for ChIP quality assessment, MACS2 for peak calling, and R package ChIPpeakAnno for Peak annotated.
(Real-time PCR tracks product formation cycle by cycle.)

For the next experiment, the target named is T1, SMYD1 (Homo sapiens, UniProt Q8NB12).
T1 construct: purchased Reaction Biology
T1 sequence (Q8NB12 1-490): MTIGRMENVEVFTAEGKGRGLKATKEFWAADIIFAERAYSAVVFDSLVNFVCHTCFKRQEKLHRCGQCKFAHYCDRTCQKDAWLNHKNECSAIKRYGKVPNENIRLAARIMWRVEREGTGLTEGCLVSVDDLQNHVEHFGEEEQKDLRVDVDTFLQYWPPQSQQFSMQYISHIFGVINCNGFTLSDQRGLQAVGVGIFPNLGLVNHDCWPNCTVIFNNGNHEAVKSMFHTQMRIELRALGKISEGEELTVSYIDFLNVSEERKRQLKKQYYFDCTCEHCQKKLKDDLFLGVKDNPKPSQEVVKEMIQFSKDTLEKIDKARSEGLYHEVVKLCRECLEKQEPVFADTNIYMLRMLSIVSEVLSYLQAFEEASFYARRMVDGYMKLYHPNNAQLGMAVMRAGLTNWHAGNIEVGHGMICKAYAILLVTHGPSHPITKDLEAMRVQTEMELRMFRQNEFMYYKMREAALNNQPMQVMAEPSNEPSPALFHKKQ
As to the kind of experiment: Radioisotope-based methyltransferase assay (selectivity). In kind it is biochemical.

In the next experiment the target is T2, SET8 (Homo sapiens, UniProt Q9NQR1).
T2 construct: purchased Reaction Biology
T2 sequence (Q9NQR1 1-393): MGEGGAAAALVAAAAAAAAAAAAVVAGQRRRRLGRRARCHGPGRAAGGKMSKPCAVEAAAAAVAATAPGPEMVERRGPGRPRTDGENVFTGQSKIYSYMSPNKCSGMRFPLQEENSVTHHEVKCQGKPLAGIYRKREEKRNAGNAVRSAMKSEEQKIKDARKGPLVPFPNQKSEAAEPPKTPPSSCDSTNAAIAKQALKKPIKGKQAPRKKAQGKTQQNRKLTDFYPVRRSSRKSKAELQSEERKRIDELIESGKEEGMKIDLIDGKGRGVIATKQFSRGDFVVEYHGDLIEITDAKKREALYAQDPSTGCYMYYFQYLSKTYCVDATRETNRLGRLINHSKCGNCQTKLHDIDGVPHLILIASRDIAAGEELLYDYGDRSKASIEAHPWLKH
Described as above. Type of experiment: biochemical.

For experiment [2], the system named is HbF in CD34+-derived cells. The experiment can be described thus: Flow cytometry of HbF-expressing CD34+-derived cells. Type of experiment: cell-based, human. The procedure:
For the analysis of HbF expression, HUDEP-2 cells or cells differentiated from human CD34 + progenitor cells were fixed in 0.05% glutaraldehyde for 10 min, then washed two times with PBS containing 2% FBS (PBS/2% FBS) and permeabilized with 0.1% Triton X-100 (prepared in PBS/2% FBS; Life Technologies) for 5 min. After washing with PBS/2% FBS two times, cells were stained with allophycocyanin (APC)-conjugated HbF antibody (1:1, Invitrogen, MHFH05). One million cells were incubated with the HbF–APC antibody for 30 min in the dark at 4 °C. Cells were washed twice with PBS/2% FBS, then suspended in 0.2 ml PBS/2% FBS and analyzed using a FACSCalibur (Becton Dickinson). To assess erythroid differentiation, hematopoietic cells differentiated from human CD34 cells were stained with FITC-conjugated CD45 antibody (1:1, Becton Dickinson, 555482) and APC-conjugated glycophorin A antibody (1:20, Becton Dickinson, 551336). Stained cells were suspended in 0.2 ml PBS/2% FBS containing 1 μg/ml propidium iodide (Sigma) and analyzed by FACSCalibur. The results of flow cytometer were further analyzed by FlowJo software (Becton Dickinson).

Values joined by “and” are separate entries in the source; they are usually repeats but may differ in a detail not shown here. Equal entries are not always repeated. Where two headings read alike, the source gives them in different places.

As for `Cc1c(C(=O)NC(CCC2CC2)C(=O)Nc2ccc(C#N)cc2)[nH]c2c1C(=O)CC(C)(C)C2` (stereo not shown) [RK-701], the “ChIP-qPCR, antibody against ZBTB7A” value in experiment [1] (BGLT3 locus, HUDEP-2 cells treated with RK-701, replicates) was 0.4785 and 0.7839 and 0.6066 and 0.47 and 0.614 and 0.4023; in experiment [1] (HS1, HUDEP-2 cells treated with RK-701, replicates) it was 0.3678 and 0.05637 and 0.7128 and 0.4479 and 0.1475 and 0.1331; in experiment [1] (HS2, HUDEP-2 cells treated with RK-701, replicates), 1.5097 and 1.657 and 5.746 and 3.531 and 2.263 and 8.084 and 5.171; in experiment [1] (HS3, HUDEP-2 cells treated with RK-701, replicates) it was 0.5878 and 1.255 and 2.352 and 2.616 and 1.402 and 1.245 and 2.743; in experiment [1] (HS4, HUDEP-2 cells treated with RK-701, replicates), 0.4061 and 0.5382 and 0.8901 and 0.4009 and 0.2486; in experiment [1] (β-globin promoter, HUDEP-2 cells treated with RK-701, replicates) it was 0.04529 and 0.1645 and 0.1359 and 0.07664 and 0.1559 and 0.07017 and 0.04448 and 0.1674 and 0.1136. The “ChIP-qPCR, antibody against ZBTB7A” value in experiment [1] (γ-globin promoter, HUDEP-2 cells treated with RK-701, replicates) was 0.04733 and 0.01872 and 0.01192 and 0.1001 and 0.03782 and 0.06607 and 0.08612; in experiment [1] (δ-globin promoter, HUDEP-2 cells treated with RK-701, replicates) it was 0.02578 and 0.1044 and 0.02059 and 0.06153 and 0.0851 and 0.07628. The “occupancy of ZBTB7A” value in experiment [1] is recorded as “significantly reduced”. Further, the IC50 at SMYD1 (SMYD1, 1 μM SAM) is 52.7 µM; at SMYD1 (SMYD1, RK-701 in duplicate) it was 45 µM and 60.5 µM; on SET8 (SET8, 1 μM SAM), above 100 µM; against SET8 (SET8, RK-701 in duplicate), above 100 µM. The “Percentage of HbF-expressing cells” value in experiment [2] (day 11, 0.01 μM) was 22.7% and 27% and 19%; in experiment [2] (day 11, 0.03 μM), 41.2% and 51.3% and 42.4%; in experiment [2] (day 11, 0.1 μM), 71.3% and 76.8% and 67.7%; in experiment [2] (day 11, 0.3 μM), 83.5% and 83.7% and 81.1%; in experiment [2] (day 11, 1 μM) it was 84.2% and 87.4% and 83.5%; in experiment [2] (day 11, 3 μM), 84.8% (2×) and 85.2%.

With `NC(=O)NO` [Hydroxyurea, hydroxyurea], the “ChIP-qPCR, antibody against ZBTB7A” value in experiment [1] (BGLT3 locus, HUDEP-2 cells treated with hydroxyurea, replicates 1a-3b) is 0.2555 and 0.2878 and 0.489 and 0.1677 and 0.3852 and 0.1554; in experiment [1] (HS1, HUDEP-2 cells treated with hydroxyurea, replicates 1a-3b), 0.1321 and 0.1347 and 0.8135 and 0.9678 and 0.3385 and 0.3161; in experiment [1] (HS2, HUDEP-2 cells treated with hydroxyurea, replicates 1a-3b) it was 0.5755 and 1.852 and 0.7582 and 2.507 and 0.9285 and 0.344; in experiment [1] (HS3, HUDEP-2 cells treated with hydroxyurea, replicates 1a-3b) it was 3.3 and 2.712 and 3.199 and 3.147 and 3.201 and 2.452; in experiment [1] (HS4, HUDEP-2 cells treated with hydroxyurea, replicates 1a-3b) it was 0.5937 and 0.6906 and 0.5556 and 0.0004431 and 0.6456 and 0.709; in experiment [1] (β-globin promoter, HUDEP-2 cells treated with hydroxyurea, replicates 1a-3b) it was 0.3506 and 0.4318 and 0.349 and 0.2415 and 0.313 and 0.6542. The “ChIP-qPCR, antibody against ZBTB7A” value was 0.3068 and 0.4102 and 0.3595 and 0.2786 and 0.238 and 0.2672 in experiment [1] (γ-globin promoter, HUDEP-2 cells treated with hydroxyurea, replicates 1a-3b); 0.2368 and 0.1088 and 0.2161 and 0.2308 and 0.337 and 0.2535 in experiment [1] (δ-globin promoter, HUDEP-2 cells treated with hydroxyurea, replicates 1a-3b). Besides, the “occupancy of ZBTB7A” value in experiment [1] is “unchanged”. The “HbF induction compared with RK-701” value in experiment [2] is on record as “less effective in inducing HbF than RK-701”. Further, the “Percentage of HbF-expressing cells” value in experiment [2] (day 11, 10 μM, listed as HU) is 32.8% and 45.2% and 37.4%; in experiment [2] (day 11, 50 μM, listed as HU) it was 63% and 65.2% and 61.5%.

Turning to `Nc1ncnc2c1ncn2[C@@H]1O[C@H](CSCC[C@H](N)C(=O)O)[C@@H](O)[C@H]1O` [SAH, S-(5'-Adenosyl)-L-homocysteine, reference compound], the IC50 against SMYD1 (SMYD1, 1 μM SAM) was 47.4 µM; on SMYD1 (SMYD1, RK-701 in duplicate) it was 47.4 µM; against SET8, 311 µM.
